The values that follow come from US20260184704A1, “NLRP3 INFLAMMASOME INHIBITORS AND USES THEREOF” (Insilico Medicine IP Limited, priority 2023, published 2026).

One test addresses T1, hERG (Homo sapiens, UniProt Q12809).
T1 construct: expressed in transfected cells
Nature of the test: hERG Screening Assay Using Electrophysiological Manual Patch-Clamp (Example B-5). Type of test: cell-based. The following applies: hERG-CHO cells, whole-cell manual patch clamp, room temperature; read-out: hERG inhibition_IC50 (μM), Example B-5. The procedure:
Example B-5: hERG Screening Assay Using Electrophysiological Manual Patch-Clamp
Cell lines: hERG-CHO cells
Method: CHO cells stably expressing the transcript of hERG were investigated by whole-cell manual patch clamp technique. hERG-CHO cells were cultured in 35 mm dishes to a maximum 70-80% confluence at 37° C. 5% CO2 incubator. The culture media (F12 medium (Invitrogen 11765062, ThermoFisher, USA) supplemented with 10% fetal bovine serum (Invitrogen 10099141, ThermoFisher, USA), 100 μg/mL G418 (Invitrogen 11811023, ThermoFisher, USA) and 100 μg/mL Hygromycin B (Invitrogen 10687010, ThermoFisher, USA)) was removed and the hERG-CHO cells were washed with extracellular solution (in mM): 140 NaCl, 5 KCl, 1 CaCl2), 1.25 MgCl2, 10 HEPES and 10 Glucose, pH 7.4 with NaOH. Then the cells were dissociated with 0.25% Trypsin-EDTA for 3-5 min, after that, the digestion solution was removed and the cells were resuspended in the extracellular solution with pipette by pipetting up and down several times. Resuspended cells were transferred to dishes for recording and cells were perfused with extracellular solution. Electrodes (a tip resistance of 3-5 MegOhm) were pulled from borosilicate grass pipette (Sutter instrument BF150-86-10) and filled with intracellular solution (in mM): 140 KCl, 1 MgCl2, 1 CaCl2), 10 EGTA and 10 HEPES, pH 7.2 with KOH. Data were obtained using a patch-clamp amplifier, signals were filtered at 2 kHz and sampled at frequencies of 10 kHz using pClamp 10 software. The cells were held at −100 mV and hERG potassium currents were activated by a 2 s depolarization potential of +20 mV followed by a repolarization potential of −50 mV for Is then back to the holding potential. Experiments were performed at room temperature.
Data analysis: Data were retrieved and analyzed using pClamp 10, GraphPad Prism 8 and Excel software. The peak amplitude of hERG currents were measured using clampfit and exported to Excel and GraphPad Prism 8 for subsequent analysis.
where Y is the inhibition % corresponding to X, [X] is the Log value of concentration of compound in the external solution and HillSlope is the Hill coefficient. The ratio of inhibition was calculated by using the equation: Inhibition=(1−I/Io)*100%, where Io and I are the current amplitude measured in control and in the presence of compounds, respectively. n is not less than 2 cells for each concentration.
Results: Compounds IC50 on hERG and concentration-response curves

In the next test the target is T2, NLRP3 (Homo sapiens, UniProt Q96P20).
T2 construct: purchased ICE YM2306T-H06MHS
T2 sequence (Q96P20 whole entry): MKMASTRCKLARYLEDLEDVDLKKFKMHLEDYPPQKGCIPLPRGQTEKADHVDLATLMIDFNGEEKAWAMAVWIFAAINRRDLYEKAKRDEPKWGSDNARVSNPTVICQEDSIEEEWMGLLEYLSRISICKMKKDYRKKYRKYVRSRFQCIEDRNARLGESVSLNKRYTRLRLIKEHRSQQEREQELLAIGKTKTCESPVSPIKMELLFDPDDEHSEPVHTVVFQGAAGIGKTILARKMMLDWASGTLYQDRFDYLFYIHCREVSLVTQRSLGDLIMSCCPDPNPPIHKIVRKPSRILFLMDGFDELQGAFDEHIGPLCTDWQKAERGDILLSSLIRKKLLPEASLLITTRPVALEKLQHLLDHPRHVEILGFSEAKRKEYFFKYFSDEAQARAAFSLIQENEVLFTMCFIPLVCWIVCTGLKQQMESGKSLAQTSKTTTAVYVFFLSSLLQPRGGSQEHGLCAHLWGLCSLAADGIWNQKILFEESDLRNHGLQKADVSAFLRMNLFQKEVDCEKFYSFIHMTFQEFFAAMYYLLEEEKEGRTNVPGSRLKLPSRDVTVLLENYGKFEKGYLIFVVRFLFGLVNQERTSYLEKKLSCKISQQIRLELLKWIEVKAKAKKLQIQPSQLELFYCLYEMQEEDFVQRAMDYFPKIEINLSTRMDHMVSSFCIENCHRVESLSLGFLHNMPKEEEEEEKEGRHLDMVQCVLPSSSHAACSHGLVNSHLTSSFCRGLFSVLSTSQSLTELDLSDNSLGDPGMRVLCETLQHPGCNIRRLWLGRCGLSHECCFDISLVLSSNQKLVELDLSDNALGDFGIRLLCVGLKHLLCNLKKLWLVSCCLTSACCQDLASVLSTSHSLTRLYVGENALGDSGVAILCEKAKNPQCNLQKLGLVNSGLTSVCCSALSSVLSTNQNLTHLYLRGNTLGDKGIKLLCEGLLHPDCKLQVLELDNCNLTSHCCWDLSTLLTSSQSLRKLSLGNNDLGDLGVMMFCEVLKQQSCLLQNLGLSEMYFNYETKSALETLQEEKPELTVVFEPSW
Kind of test: NLRP3 Enzymatic Activity ADP-Glo Assay (Example B-4). Type of test: biochemical. The note with it: hydrolysis of ATP by NLRP3; NLRP3 15 nM, ATP 1 μM; read-out: NLRP3_ADP-Glo_IC50 (nM), Example B-4. The procedure: Example B-4: NLRP3 Enzymatic Activity ADP-Glo Assay
NLRP3 activity test experiment, measuring the hydrolysis of NLRP3 on the substrate ATP using the ADP-Glo assay. First, after adding an inhibitor containing 0.5% DMSO with Echo, add 5 μL of NLRP3 (ICE, YM2306T-H06MHS) enzyme solution to each well, centrifuge at 1000 rpm for 1 min at room temperature and react for 10 min. Then add 5 μL of ATP (Promega, V915A) substrate solution to each well for 90 min at room temperature; NLRP3 and ATP were prepared in 50 mM HEPES, 10 mM MgCl2, 0.01% Brij-35, 1 mM EGTA, and 2 mM DTT buffers at final concentrations of 15 nM and 1 μM, respectively. Subsequently, 10 μL ADP-Glo reagent solution (Promega, V9102) was added into each assay well, centrifuged at 1000 rpm for 1 min, and then incubated at room temperature for 45 min. Finally, 20 μL ADP-Glo detection solution (Promega, V9102) is added to each well, centrifuged at 1000 rpm for 1 min and reacted for 45 min at room temperature. The luminescence signal values were read using a BMG instrument and the IC50 values were determined by fitting the data to an S-shaped dose-response curve using nonlinear regression.
(In general: In ADP-Glo the light output rises with the ADP produced.)

The test system of test [1] is THP-1 cells, IL-1β release. Nature of the test: IL-1β Release THP-1 Assay (Example B-3). Type of test: cell-based. The note with it: Homo sapiens; PMA-differentiated THP-1 cells, LPS then Nigericin, IL-1β by Elisa; read-out: Potency, THP-1 IL-1β, IC50 (nM), Example B-3. The procedure: Example B-3: IL-1β Release THP-1 Assay
THP-1 cells Culture RPMI1640 medium, 10% FBS, 1% PS, 55 uM β-Mer at 37° C. & 5% CO2 incubator.
IL-1β Release Detection • 1) Seed THP-1 in complete RPMI 1640 medium containing PMA into 96 well plate coated with poly-L-lysin incubate for 24 hours. • 2) Remove medium, wash the differentiated THP-1 cells with PBS, add FBS free RPMI 1640 medium. • 3) Add LPS and incubate for 3 hours at 37° C. & 5% CO2 incubator. • 4) Add compounds and incubate for 30 minutes at 37° C. & 5% CO2 incubator. • 5) Add Nigericin and incubate for 1 hour at 37° C. & 5% CO2 incubator. • 6) Collect supernatant to test IL-1β by Elisa.
• a) Assay robustness check with DMSO and Low control data:
[formula] • X: cpd concentration • Y: change % • Top and Bottom: Plateaus in same units as Y • logIC50: same log units as X • HillSlope: Slope factor or Hill slope

Molecules are shown by their SMILES. Bounds are passed on as bounds.

T1 sequence (Q12809 whole entry): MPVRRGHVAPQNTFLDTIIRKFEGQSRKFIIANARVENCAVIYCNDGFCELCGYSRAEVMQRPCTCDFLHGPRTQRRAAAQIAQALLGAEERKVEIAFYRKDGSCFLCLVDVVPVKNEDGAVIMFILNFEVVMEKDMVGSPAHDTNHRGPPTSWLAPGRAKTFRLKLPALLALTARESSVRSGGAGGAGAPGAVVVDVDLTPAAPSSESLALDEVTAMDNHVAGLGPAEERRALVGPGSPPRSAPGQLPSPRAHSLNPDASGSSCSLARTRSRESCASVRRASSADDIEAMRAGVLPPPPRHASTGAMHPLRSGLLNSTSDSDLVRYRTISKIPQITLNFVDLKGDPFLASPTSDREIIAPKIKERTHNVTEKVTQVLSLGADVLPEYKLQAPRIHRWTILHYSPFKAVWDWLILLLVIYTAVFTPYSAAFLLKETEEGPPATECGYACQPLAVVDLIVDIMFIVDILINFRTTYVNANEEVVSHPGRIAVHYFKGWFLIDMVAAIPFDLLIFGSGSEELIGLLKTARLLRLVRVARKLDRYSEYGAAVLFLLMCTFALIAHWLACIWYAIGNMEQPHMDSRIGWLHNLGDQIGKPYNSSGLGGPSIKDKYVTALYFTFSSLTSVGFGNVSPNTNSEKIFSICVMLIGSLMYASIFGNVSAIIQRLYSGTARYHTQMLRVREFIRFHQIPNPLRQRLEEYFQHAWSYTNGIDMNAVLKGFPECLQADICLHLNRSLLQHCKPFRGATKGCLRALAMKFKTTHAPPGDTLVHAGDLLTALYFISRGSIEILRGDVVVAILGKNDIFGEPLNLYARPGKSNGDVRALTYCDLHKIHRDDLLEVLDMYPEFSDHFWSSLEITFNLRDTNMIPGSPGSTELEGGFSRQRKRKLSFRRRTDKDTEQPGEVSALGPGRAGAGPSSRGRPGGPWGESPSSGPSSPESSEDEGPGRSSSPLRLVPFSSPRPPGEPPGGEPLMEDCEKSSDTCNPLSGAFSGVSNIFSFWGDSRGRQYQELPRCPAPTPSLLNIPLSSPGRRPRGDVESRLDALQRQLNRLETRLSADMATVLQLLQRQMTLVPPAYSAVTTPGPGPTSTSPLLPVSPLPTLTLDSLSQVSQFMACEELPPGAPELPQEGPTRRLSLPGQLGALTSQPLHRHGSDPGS

`Cc1cc(C(F)(F)F)cc(O)c1C1=NN=C(N[C@@H]2C[C@@H](F)CN(C)C2)SC1` [Compound 8]: the IC50 at hERG was 19.1 µM; on NLRP3, 10 to 100 nM; in test [1], 10 to 100 nM.

`Cc1cc(C(F)(F)F)cc(O)c1C1=NN=C(N[C@H]2C[C@@](C)(O)C2)SC1` [Compound 10]: the IC50 on hERG is above 30 µM; on NLRP3, 10 to 100 nM; in test [1], 10 to 100 nM.

With `Cc1cc2c(c(O)c1C1=NN=C(N[C@@H]3CCCN(C)C3)SC1)CCO2` [Compound 28], the IC50 at hERG was 29.4 µM; on NLRP3 it was 10 to 100 nM; in test [1], below 10 nM.

Turning to `Cc1cc2c(c(O)c1C1=NN=C(N[C@H]3C[C@@](C)(O)C3)SC1)CCO2` [Compound 31], the figures for the IC50 (at hERG; on NLRP3; in test [1]) were above 30 µM, 10 to 100 nM and 10 to 100 nM, respectively.

Consider `Cc1cc2c(c(O)c1C1=NN=C(N[C@H]3C[C@@](C)(O)C3)SC1)CC2` [Compound 59], for which the IC50 was above 30 µM at hERG, below 10 nM on NLRP3 and below 10 nM in test [1].

Take `Cc1cc2c(c(O)c1C1=NN=C(N[C@H]3C[C@](C)(O)C3)SC1)CC2` [Compound 67]: the IC50 (at NLRP3; in test [1]) was 10 to 100 nM each time.

As to `Cc1cc2c(c(O)c1C1=NN=C(N[C@H]3C[C@@](C)(N)C3)SC1)CC2` [Compound 68], the IC50 (on NLRP3; in test [1]) was 10 to 100 nM each time.

As for `Cc1cc(C(F)(F)F)cc(O)c1C1=NN=C(N[C@H]2C[C@@](C)(O)C2)CS1` [Compound 201], the IC50 (at NLRP3; in test [1]) was 10 to 100 nM each time.

In the case of `Cc1cc(C(F)(F)F)cc(O)c1C1=NN=C(N[C@H]2C[C@@](C)(O)C2)C(C)(C)S1` [Compound 202], the IC50 (on NLRP3; in test [1]) was 10 to 100 nM throughout.

Turning to `Cc1cc2c(c(O)c1C1=NN=C(N[C@H]3C[C@@](C)(O)C3)CS1)CCO2` [Compound 203], the IC50 (on NLRP3; in test [1]) was 10 to 100 nM each time.

Take `Cc1cc(Cl)cc(O)c1C1=NN=C(N[C@H]2C[C@@](C)(O)C2)CS1` [Compound 204]: the values for the IC50 (on NLRP3; in test [1]) were 10 to 100 nM and below 10 nM, respectively.

With `Cc1cc2c(c(O)c1C1=NN=C(N[C@@H]3CCCN(C)C3)CS1)CCO2` [Compound 205], the IC50 (at NLRP3; in test [1]) was below 10 nM in each case.

As for `Cc1cc(Cl)cc(O)c1C1=NN=C(N[C@H]2C[C@@](C)(N)C2)CS1` [Compound 206], the IC50 (on NLRP3; in test [1]) was 10 to 100 nM throughout.
